For one compound, Activity and IC50 results are on record in ChEMBL document CHEMBL5360672, “Identification of Novel Dual-Target Estrogen Receptor α Degraders with Tubulin Inhibitory Activity for the Treatment of Endocrine-Resistant Breast Cancer” (J Med Chem, 2023).

The subject of series [1] is Estrogen receptor (Homo sapiens), P03372 [Y537S]. In words: Induction of ERalpha degradation in human T47D cells harboring ERalpha Y537S mutant at 0.5 to 5 uM incubated for 24 hrs by Western blot analysis. The class given is cell-based. To be noted: dose 0.5-5 µM. (In western blotting, separated proteins are transferred to a membrane and probed.)
The nature of series [2]: Antiproliferative activity against human Tamoxifen-resistant LCC2 cells assessed as inhibition of cell proliferation incubated for 72 hrs by CCK8 assay. The class given is functional, cell-based. On the technique in general: Tetrazolium assays rely on reduction of a dye to a coloured formazan, in cell work by metabolically active cells.
The nature of series [3]: Cytotoxicity against human MCF-10A cells assessed as inhibition of cell proliferation incubated for 72 hrs by CCK8 assay. The class given is toxicity, cell-based.
The target in series [4] is T1, Tubulin (Homo sapiens) (UniProt P68371+Q9H4B7+P0DPH7+P68366+Q13509+Q71U36+P04350+Q3ZCM7+P07437+P68363+Q9BQE3+Q6PEY2+Q13885+Q9BVA1+Q9BUF5). In words: Disruption of microtubule network in human LCC2 cells assessed as chaotic microtubule network at 4 uM incubated for 48 hrs by DAPI staining based confocal laser scanning microscopic analysis. The class given is cell-based.

A short description of series [5]: Toxicity in Balb/c nude mouse xenografted with human MCF7 cells assessed as body weight loss at 2 to 4 mg/kg, ip administered every other day for 20 days. The class given is organism-based. To be noted: in vivo, 480 h, dose 2-4 mg/kg, time 20 day.
In series [6] the test system is LCC2. Kind of series: Induction of cell cycle arrest in human LCC2 cells assessed as accumulation of cells at G2/M phase incubated for 48 hrs by flow cytometry analysis. The class given is functional, cell-based. As to conditions: dose 6-24 µM. (Flow cytometry measures light scatter and fluorescence of single cells or particles in a stream.)
Series [7] addresses T1, Tubulin (Homo sapiens). Kind of series: Disruption of microtubule network in human MCF7 cells assessed as chaotic microtubule network at 2 uM incubated for 48 hrs by DAPI staining based confocal laser scanning microscopic analysis. The class given is cell-based.
Series [8] concerns the target T1, Tubulin (Homo sapiens). Kind of series: Disruption of microtubule network in human MCF7 cells assessed as ruptured microtubule network at 2 uM incubated for 48 hrs by DAPI staining based confocal laser scanning microscopic analysis. The class given is cell-based.
Series [9] is described as follows: Toxicity in Balb/c nude mouse xenografted with human MCF7 cells assessed as effect on kidney morphology at 2 to 4 mg/kg, ip administered every other day for 20 days by H&E staining based analysis. The class given is organism-based. To be noted: in vivo, 480 h, dose 2-4 mg/kg, time 20 day.
The nature of series [10]: Toxicity in Balb/c nude mouse xenografted with human MCF7 cells assessed as effect on liver morphology at 2 to 4 mg/kg, ip administered every other day for 20 days by H&E staining based analysis. The class given is organism-based. To be noted: in vivo, 480 h, dose 2-4 mg/kg, time 20 day.
Series [11] has as its system T47D. Kind of series: Antiproliferative activity against human T47D cells harboring ERalpha Y537S mutant assessed as inhibition of cell proliferation incubated for 72 hrs by CCK8 assay. The class given is functional, cell-based.
Series [12] relates to T47D. Kind of series: Antiproliferative activity against human T47D cells harboring ERalpha D538G mutant assessed as inhibition of cell proliferation incubated for 72 hrs by CCK8 assay. The class given is functional, cell-based.

Calls of active or inactive are those of the source. The calls are words filed in the database; no cut-off is given here.

Estrogen receptor (Homo sapiens), P03372 [Y537S], sequence (P03372 whole entry Y537S): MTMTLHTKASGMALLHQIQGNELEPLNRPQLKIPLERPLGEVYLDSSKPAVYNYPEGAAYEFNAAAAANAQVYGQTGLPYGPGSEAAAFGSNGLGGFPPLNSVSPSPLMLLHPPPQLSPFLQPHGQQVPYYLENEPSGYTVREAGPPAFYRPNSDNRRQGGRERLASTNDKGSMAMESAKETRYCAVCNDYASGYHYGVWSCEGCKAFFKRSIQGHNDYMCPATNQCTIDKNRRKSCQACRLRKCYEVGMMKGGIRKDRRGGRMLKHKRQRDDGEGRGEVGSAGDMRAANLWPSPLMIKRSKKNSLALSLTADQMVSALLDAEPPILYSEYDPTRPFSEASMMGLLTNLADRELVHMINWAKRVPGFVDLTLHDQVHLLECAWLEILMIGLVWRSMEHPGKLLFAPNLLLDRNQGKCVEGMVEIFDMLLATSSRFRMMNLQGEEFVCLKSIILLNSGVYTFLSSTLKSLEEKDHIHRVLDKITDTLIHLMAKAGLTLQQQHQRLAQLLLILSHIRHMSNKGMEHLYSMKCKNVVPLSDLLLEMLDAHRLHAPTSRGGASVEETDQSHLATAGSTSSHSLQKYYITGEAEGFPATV

With `N#C[Se]CCCCCC(=O)Nc1ccc(C2=C(c3ccc(O)cc3)C3CC(S(=O)(=O)N(CC(F)(F)F)c4ccccc4F)C2O3)cc1` (configuration not stated), the result in series [1], in [4], in [7] and in series [8] was Active. In addition, the IC50 (as a rule, the concentration at which inhibition is half-maximal) worked out at 1590 nM in series [2], 1370 nM in series [11] and 1670 nM in series [12]. Besides, the IC50 at 72 h in series [3] turned out to be 15800 nM. In addition, the Activity entry in series [5] was “Non-Toxic”; in series [6] it was “Dose-Dependent Effect”; in [9], “Non-Toxic”; in series [10], “Non-Toxic”.
